Ends that are not written are not given here.
Key:
[1] = test system: THP-1 cells; test: HOXB4-WT transduction: target gene mRNA by real-time PCR (Fold over control) and total RNA (ng/μL) as marker for cell viability; type: cell-based, human; conditions: THP-1 cells; for Total RNA in ng/μL (mean ± St. Dev): peptide alone 1 μM, HOXB4-WT 0 μM, marker for cell viability
Description: Control and treated cells are transferred to separate sterile 1.5-mL tubes and centrifuged for 5 minutes at 300g. The cell pellets are resuspended in appropriate buffer to lyse the cells. RNAase-free 70% ethanol is then added followed by mixing by pipetting. The lysates are transferred to an RNeasy™ Mini spin column and centrifuged 30 seconds at 13000 RPM. After several washes with appropriate buffers and centrifugation steps, the eluates are collected in sterile 1.5-mL tubes on ice, and the RNA quantity in each tube is then quantified with a spectrophotometer. For DNase treatment, 2 μg of RNA is diluted in 15 μL of RNase-free water. 1.75 μL of 10X DNase buffer and 0.75 μL of DNase is then added, followed by incubation at 37° C. for 15 minutes. For reverse transcriptase treatment, 0.88 μL of EDTA […] is added, followed by incubation at 75° C. for 5 minutes. In a PCR tube, […] of DNase-treated RNA is mixed with 4 μL of iScript™ Reverse transcription Supermix (5X) and […] of nuclease-free water. The mix is incubated in a PCR machine with the following program: 5 min at 25° C., 30 min at 42° C. and 5 min at 85° C. Newly synthesized cDNA is transferred in sterile 1.5-mL tubes and diluted in 2 μL of nuclease-free water. 18 μL per well of a qPCR machine (CFX-96™) mix is then added in a PCR plate for analysis.
Briefly, THP-1 cells were plated at 30 000 cells/well one day before transduction. HOXB4-WT recombinant protein ([…]; Example 14.1) was co-incubated with different concentrations of His-CM18-PTD4 ([…]) and then exposed to THP-1 cells for 2.5 hours in the presence of serum. The cells were subjected to real time-PCR analysis as described in Example 14.2 to measure the mRNA levels of a target gene as a marker for HOXB4 activity, which was then normalized to the target gene mRNA levels detected in the negative control cells (no treatment), to obtain a “Fold over control” value. Total RNA levels (ng/μL) were also measured as a marker for cell viability.
Briefly, THP-1 cells were plated at 30 000 cells/well one day before the first time course experiment. HOXB4-WT recombinant protein (1.5 μM; Example 14.1) was co-incubated with His-CM18-PTD4 (0.8 μM) and then exposed to THP-1 cells for 0, 2.5, 4, 24 or 48 hours in presence of serum. The cells were subjected to real time-PCR analysis as described in Example 14.2 to measure mRNA levels of a target gene as a marker for HOXB4 activity, which was then normalized to the target gene mRNA levels detected in the negative control cells (no treatment), to obtain a “Fold over control” value. Total RNA levels (ng/μL) were also measured as a marker for cell viability.
Briefly, THP-1 cells were plated at 30 000 cells/well one day before the first time course experiment. HOXB4-WT recombinant protein (0.3 μM; Example 14.1) was co-incubated with His-CM18-PTD4 (0.8 μM) and then exposed to THP-1 cells for 0, 0.5, 1, 2, 2.5, 3 or 4 hours in presence of serum. The cells were subjected to real time-PCR analysis as described in Example 14.2 to measure mRNA levels of a target gene as a marker for HOXB4 activity, which was then normalized to target gene mRNA levels detected in the negative control cells (no treatment), to obtain a “Fold over control” value. Total RNA levels (ng/μL) were also measured as a marker for cell viability.
Briefly, THP-1 cells were plated at 30 000 cells/well one day before the first time course experiment. HOXB4-WT recombinant protein (1.5 μM; Example 14.1) co-incubated with the shuttle agents His-CM18-PTD4, TAT-KALA, EB1-PTD4, His-C(LLKK)3C-PTD4 and His-CM18-PTD4-His at 0.8 μM, and then exposed to THP-1 cells for 2.5 hours in presence of serum. The cells were subjected to real time-PCR analysis as described in Example 14.2 to measure mRNA levels of a target gene as a marker for HOXB4 activity, which was then normalized to target gene mRNA levels detected in the negative control cells (no treatment), to obtain a “Fold over control” value. […]

[2] = in vitro; conditions: human, THP-1 cells
[3] = in vitro; conditions: human, NCI-H196 cells
[4] = in vitro; conditions: human, HCC-78 cells
[5] = in vitro; conditions: human, HeLa cells; for viability: Cell viability (%) (±St Dev.; n = 3)
[6] = in vitro; conditions: human, HeLa cells
[7] = test system: HeLa cells; conditions: human, 10 s, 50 µM
[8] = test system: HeLa cells; test: Plasmid DNA (pEGFP-C1) transfection by peptides (% cells with GFP signal, cell viability); conditions: DNA transfection in HeLa cells using peptides; pEGFP-C1 plasmid
[9] = Cell viability (%) (±St. Dev.; n = 3)

Q: With HOXB4-WT alone as the substance, how does the “Fold over control (mean ± St. Dev)” value ([1]; HOXB4-WT alone 1.5 μM, no peptide, target gene mRNA by real time-PCR) read?
A: 2.5 ± 0.2

Q: With “KWKLARAFARAIKKLGGSGGGSYARALRRQARTG [FSD10 alone]” as the substance, how does the “Total RNA in ng/μL (mean ± St. Dev)” value [1] read?
A: 181 ± 10.7 ng/µL

Q: Which viability at 0.5 min, 2 µM [2] does the source give for “KWKLARAFARAIKKLGGSGGGSYARALRRQARTG [FSD10]” here?
A: 96.3 ± 2.16%

Q: What about the viability at 1 min, 1 µM [2] of the same substance?
A: 93.5 ± 5.64%

Q: What about the viability at 1 min, 2 µM [2] of the same substance?
A: 85.6 ± 5.22%

Q: And the viability at 0.025 h, 1 µM [2]?
A: 78.4 ± 6.15%

Q: What about the viability at 1 min, 8 µM [3] of the same substance?
A: 81 ± 8.02%

Q: What about the viability at 1 min, 10 µM [3] of the same substance?
A: 85.4 ± 7.66%

Q: And the viability at 2 min, 5 µM [3]?
A: 83.2 ± 7.51%

Q: And the viability at 1 min, 8 µM [4]?
A: 76.1 ± 6.19%

Q: And the viability at 1 min, 10 µM [4]?
A: 63.1 ± 5.27%

Q: What about the viability at 2 min, 5 µM [4] of the same substance?
A: 83.1 ± 5.99%

Q: And the viability [5]?
A: 79.8 ± 4.73%

Q: What about the viability at 1 min, 8 µM [5, 9] of the same substance?
A: 83.4 ± 6.38%

Q: What about the viability at 1 min, 10 µM [5, 9] of the same substance?
A: 79.8 ± 6.37%

Q: And the viability at 2 min, 5 µM [5, 9]?
A: 55.6 ± 4.28%

Q: And the viability [6]?
A: 72.4 ± 8.61%

Q: For KWKLARAFARAIKKLYARALRRQARTG [FSD12], which viability at 1 min, 8 µM [3] is on record?
A: 71.9 ± 6.44%

Q: What about the viability at 1 min, 10 µM [3] of the same substance?
A: 72.5 ± 6.29%

Q: What about the viability at 2 min, 5 µM [3] of the same substance?
A: 76.5 ± 6.37%

Q: And the viability at 1 min, 8 µM [4]?
A: 66.3 ± 6.03%

Q: What about the viability at 1 min, 10 µM [4] of the same substance?
A: 46.5 ± 4.18%

Q: What about the viability at 2 min, 5 µM [4] of the same substance?
A: 75.1 ± 6.31%

Q: What about the viability [5] of the same substance?
A: 67.8 ± 4.83%

Q: And the viability [6]?
A: 58.6 ± 2.07%

Q: Which “Total RNA in ng/μL (mean ± St. Dev)” value [1] does the source give for “LLKLWSRLLKLWTQGGSGGGSGRRLKAKRAKA [FSD18 alone]” here?
A: 157 ± 3.9 ng/µL

Q: For “RRLSYSRRRFWEAKLAKALAKALAKHLAKALAKALKACEA [SynB3-KALA]”, which “Cell viability (%) (±St. Dev.; n = 3)” value [7] is on record?
A: 91.1 ± 0.82%

Q: For “RRRRRRRRRWEAKLAKALAKALAKHLAKALAKALKACEA [9Arg-KALA]”, which “Cell viability (%) (±St. Dev.; n = 3)” value [7] is on record?
A: 62.8 ± 5.11%

Q: Which “Cell viability (%) (±St. Dev.; n = 3)” value [7] does the source give for YARAAARQARA [PTD4, reference compound] here?
A: 94 ± 4.5%

Q: And the viability [6]?
A: 98.2 ± 0.69%

Q: What does the source list for “YGRKKRRQRRRCKKALLALALHHLAHLALHLALALKKA [TAT-LAH4]”?
A: Mean % cells with GFP signal (±St. Dev.; n = 3) [8]: 0.15 ± 0.00%; viability [6]: 96.2 ± 2.7%

Source: patent publication US12286632B2, “Rationally-designed synthetic peptide shuttle agents for delivering polypeptide cargos from an extracellular space to the cytosol and/or nucleus of a target eukaryotic cell, uses thereof, methods and kits relating to same” (Feldan Bio Inc., priority 2016, dated 2025)
